Test system: HEK293T cells
Test: In vitro transfection efficiency of LNPs encapsulating SamRNA-GFP in HEK293T cells (flow cytometry)
Format: cell-based
Conditions: modular lipid/DOPE/DMG-PEG2000 40/10/2 mole ratio, 100 ng RNA, 24 hours
Experimental: The modular lipids of the disclosure were mixed with at least one of ionizable lipid, DOPE, cholesterol (Chol), and/or DMG-PEG2000 in ethanol at a predetermined molar ratio. Ionizable lipid: SamRNA molar ratio of 6:1 was used to prepare an organic phase. SamRNA-LUC or SamRNA-GFP was diluted in 50 mM citrate buffer (pH 4.5, Fisher) or PBS (pH 7.4, Fisher) to prepare an aqueous phase. The SamRNA was stored at −80° C. and was thawed on ice prior to use. The ethanol and aqueous phases were mixed at a 1:3 ratio by pipette. The resultant LNPs were purified by ultrafiltration (100,000 cut-off, MilliporeSigma™ Amicon™ Ultra-15 Centrifugal Filter Units) at 4° C. prior to injection.
LNPs containing SamRNA-GFP or SamRNA-LUC were added into 96-well plate at 100 ng/well pre-seeded with HEK293, C2C12 or MC38 cells. After a 24 hour incubation at 37° C. and 5% CO2, the SamRNA-LUC transfection efficiency was measured by plate reader (Perkin Elmer Envision 2104) and GFP SamRNA transfection efficiency was measured by flow cytometry (BD FACSymphony™ A5 SE Cell Analyzer).
The transfection efficacy of LNPs formulated using modular lipids P161F5, P161F6 or P161F10; DOPE and DMG-PEG2000 (modular lipid/DOPE/DMG-PEG2000, 40/10/2 mole ratio) encapsulating LNP-SamRNA-GFP were studied using HEK293T cells in 96-well plates. […]

SMILES	transfection efficiencies compared with four-component LNPs containing MC3 and SM102
CCCCCCCCCCCCC(CCCCCCCCCC)CN(C(=O)CCC(C)C1CCC2C3CC(O)C4CC(O)CCC4(C)C3CCC12C)C(C(=O)NC12CC3CC(CC(C3)C1)C2)C1CCN(CC)CC1 (centres unmarked) [P161F6, N-(2-(((1s,3s)-adamantan-1-yl)amino)-1-(1-ethylpiperidin-4-yl)-2-oxoethyl)-N-(2-decyltetradecyl)-4-(3,6-dihydroxy-10,13-dimethylhexadecahydro-1H-cyclopenta[a]phenanthren-17-yl) pentanamide]	comparable or higher
CCCCCCCCCCC(CCCCCCCC)CN(C(=O)CCC(C)C1CCC2C3CC(O)C4CC(O)CCC4(C)C3CCC12C)C(CC1CCN(C)CC1)C(=O)NC12CC3CC(CC(C3)C1)C2 (centres unmarked) [P161F10, N-(1-(((1s,3s)-adamantan-1-yl)amino)-3-(1-methylpiperidin-4-yl)-1-oxopropan-2-yl)-4-(3,6-dihydroxy-10,13-dimethylhexadecahydro-1H-cyclopenta[a]phenanthren-17-yl)-N-(2-octyldodecyl)pentanamide]	comparable or higher

— patent US12691068B2, “Modular lipid compounds and two- to three-component lipid nanoparticle compositions” (SunVax mRNA Therapeutics Inc., priority 2022, dated 2026)
